Experimental data as given in patent US5610161A, “Therapeutic agents” (The Boots Company PLC, priority 1992, dated 1997).
Where a name gives a salt, the structure may show the parent alone. Read-outs that look alike come from different tables or passages of the source.

Columns and labels:
[1] = tested on: reserpine-induced fall in body temperature; test: Test 1: reversal of reserpine-induced hypothermia in mice, oral; format: in vivo, mice (Charles River CD1 strain, male); conditions: for ED50: Mus musculus, read-out: Test 1 ED50 (dose causing 50% reversal of the reserpine-induced fall in body temperature)
Experimental: Male mice of the Charles River CD1 strain weighing between 18 and 30 g were separated into groups of five and were supplied with food and water ad libitum. After five hours the body temperature of each mouse was taken orally and the mice were injected intraperitoneally with reserpine (10 mg/kg) in solution in deionised water containing ascorbic acid (50 mg/ml). The amount of liquid injected was 10 ml/kg of body weight. Nine hours after the start of the test food was withdrawn but water was still available ad libitum. Twenty-four hours after the start of the test the temperatures of the mice were taken and the mice were given the test compound orally at a dose volume of 10 ml/kg of body weight. The compound was administered in aqueous solution. Three hours later the temperatures of all the mice were again taken. The percentage reversal of the reserpine-induced fall in body temperature was then calculated by the formula: [formula] The percentage reversal value for each group of five mice was determined at more than one dose rate to enable a value of the dose which causes a 50% reversal (ED50) to be obtained.

reserpine-induced ptosis = test: Test 2: prevention of reserpine-induced ptosis (eye closure) in rats, oral; format: in vivo, rats (Charles River CD strain, male); conditions: for ED50: Rattus norvegicus, read-out: Test 2 ED50 (dose causing 50% prevention of the reserpine-induced ptosis)
Text: Male rats of the Charles River CD strain weighing between 140 and 180 g were randomly separated into five rats in each cage and supplied with food and water ad libitum. Eighteen hours prior to initiation of the test four of the five rats were marked with a pen such that each rat was individually identifiable; food was then withdrawn. The following morning, two hours before the test, the rats were weighed and a semi-randomised code was used to allocate treatments to rats. The test commenced by orally administering either:
a) the test compound in solution in deionised water at a dose volume of 10 ml/kg of body weight, followed by immediate intravenous injection of 1 ml/kg of body weight of reserpine (0.75 mg/kg) in solution in deionised water containing 238 mM citric acid, 1.02% v/v Tween 80 and 0.2% v/v benzyl alcohol (treated group);
b) deionised water at a dose volume of 10 ml/kg of body weight, followed by immediate intravenous injection of 1 ml/kg of body weight of reserpine (0.75 mg/kg) in solution in deionised water containing 238 mM citric acid, 1.02% v/v Tween 80 and 0.2% v/v benzyl alcohol (positive control group); or
c) deionised water at a dose volume of 10 ml/kg of body weight, followed by immediate intravenous injection of 1 ml/kg of body weight of deionised water containing 238 mM citric acid, 1.02% v/v Tween 80 and 0.2% v/v benzyl alcohol (negative control group).
The degree of prosis was scored 45 seconds and 75 seconds later using the following observer rating system: 0=eye fully open, 1=eye 1/4 closed, 2=eye 1/2 closed, 3=eye 3/4 closed, 4=eye fully closed. A mean ptosis score was then calculated for all identically treated rats usually comprising a group of eight rats. […] The mean ptosis score for each group of treated rats was determined at more than one dose of test compound to enable a value for the dose (ED50) which causes a 50% prevention of the reserpine-induced ptosis to be obtained.

[2] = mice, oral, reserpine 10 mg/kg i.p., temperature 3 h after compound
[3] = rats, oral, reserpine 0.75 mg/kg i.v., ptosis scored 3 h later

| SMILES | ED50 (reserpine-induced ptosis; [3]) [mg/kg] | ED50 [1, 2] [mg/kg] | further results |
| --- | --- | --- | --- |
| OC1(c2ccc(Cl)cc2)CCCNC12CCCCC2 (centres unmarked) [Example 1, 5-(4-chlorophenyl)-5-hydroxy-1-azaspiro[5.5]undecane] | 11.3 | – | Test 1 ED50 (dose causing 50% reversal of the reserpine-induced fall in body temperature) [1, 2]: Inactive @ 30 |
| OC1(c2cccc(Cl)c2)CCCNC12CCCCC2 (centres unmarked) [Example 2, 5-(3-chlorophenyl)-5-hydroxy-1-azaspiro[5.5]undecane] | 8.1 | ~16 | – |
| OC1(c2ccc(Cl)c(Cl)c2)CCCNC12CCCCC2 (centres unmarked) [Example 3, 5-(3,4-dichlorophenyl)-5-hydroxy-1-azaspiro[5.5]undecane] | 7.7 | 10.7 | – |
| CCN1CCCC(O)(c2ccc(Cl)cc2)C12CCCCC2.Cl (centres unmarked) [Example 4, 5-(4-chlorophenyl)-1-ethyl-5-hydroxy-1-azaspiro[5.5]undecane hydrochloride] | 2.2 | – | Test 1 ED50 (dose causing 50% reversal of the reserpine-induced fall in body temperature) [1, 2]: Inactive @ 30 |
| Clc1ccc(C2=CCCNC23CCCCC3)cc1.O=S(=O)(O)O [Example 5, 5-(4-chlorophenyl)-1-azaspiro[5.5]undec-4-ene sulphate] | – | – | ED50 ([1]; po, 3 h): ~20 mg/kg; ED50 (reserpine-induced ptosis; po, 3 h): 7 mg/kg |
| Clc1ccc(C2=CCCNC23CCCCC3)cc1 [Example 6, 5-(4-chlorophenyl)-1-azaspiro[5.5]undec-4-ene 0.5 sulphate, 2.1 hydrate] | 2.7 | 14.1 | – |
| Cl.Clc1ccc(C2=CCCNC23CCCCC3)cc1 [Example 7, 5-(4-chlorophenyl)-1-azaspiro[5.5]undec-4-ene hydrochloride] | 1.4 | 2 | – |
| Cl.Clc1cccc(C2=CCCNC23CCCCC3)c1 [Example 8, 5-(3-chlorophenyl)-1-azaspiro[5.5]undec-4-ene hydrochloride] | – | – | ED50 ([1]; po, 3 h): 16.4 mg/kg; ED50 (reserpine-induced ptosis; po, 3 h): 5.1 mg/kg |
| Cl.Clc1ccc(C2=CCCNC23CCCCC3)cc1Cl [Example 9, 5-(3,4-dichlorophenyl)-1-azaspiro[5.5]undec-4-ene hydrochloride] | 3.9 | ~11 | – |
| Fc1ccc(C2=CCCNC23CCCCC3)cc1.O=S(=O)(O)O [Example 10, 5-(4-fluorophenyl)-1-azaspiro[5.5]undec-4-ene sulphate] | – | – | ED50 ([1]; po, 3 h): ~18 mg/kg; ED50 (reserpine-induced ptosis; po, 3 h): 8.5 mg/kg |
| Cl.FC(F)(F)c1cccc(C2=CCCNC23CCCCC3)c1 [Example 11, 5-[3-(trifluoromethyl)phenyl]-1-azaspiro[5.5]undec-4-ene hydrochloride] | – | ~22 | Test 2 ED50 (dose causing 50% prevention of the reserpine-induced ptosis) (reserpine-induced ptosis; [3]): Inactive @ 30 |
| C1=C(c2ccc3ccccc3c2)C2(CCCCC2)NCC1.Cl [Example 12, 5-(2-naphthyl)-1-azaspiro[5.5]undec-4-ene hydrochloride] | 11.9 | 11.9 | – |
| Cl.Oc1ccc(C2=CCCNC23CCCCC3)cc1 [Example 13, 5-(4-hydroxyphenyl)-1-azaspiro[5.5]undec-4-ene hydrochloride] | 21.8 | – | Test 1 ED50 (dose causing 50% reversal of the reserpine-induced fall in body temperature) [1, 2]: Inactive @ 30 |
| CN1CCC=C(c2ccc(Cl)cc2)C12CCCCC2.Cl [Example 14, 5-(4-chlorophenyl)-1-methyl-1-azaspiro[5.5]undec-4-ene hydrochloride] | 30 | ~12 | – |
| Clc1ccc(C2=CCCNC23CCCCC3)cc1.O=C(O)/C=C/C(=O)O [Example 15, 5-(4-chlorophenyl)-1-azaspiro[5.5]undec-4-ene fumarate] | 3.8 | 6.9 | – |
| CS(=O)(=O)O.Clc1ccc(C2=CCCNC23CCCCC3)cc1 [Example 16, 5-(4-chlorophenyl)-1-azaspiro[5.5]undec-4-ene methanesulphonate] | 3.3 | 9.4 | – |
| Clc1ccc(C2=CCCNC23CCCC3)cc1.O=S(=O)(O)O [Example 17, 10-(4-chlorophenyl)-6-azaspiro[4.5]dec-9-ene sulphate] | – | – | ED50 ([1]; po, 3 h): ~23 mg/kg; ED50 (reserpine-induced ptosis; po, 3 h): 3.1 mg/kg |
| Cl.Clc1ccc(C2CCCNC23CCCCC3)cc1 (centres unmarked) [Example 18, 5-(4-chlorophenyl)-1-azaspiro[5.5]undecane hydrochloride] | 0.5 | 4.8 | – |
| COc1ccc(C2CCCNC23CCCCC3)cc1.Cl (centres unmarked) [Example 19, 5-(4-methoxyphenyl)-1-azaspiro[5.5]undecane hydrochloride] | 5.8 | ~14 | – |
| CCCN1CCC=C(c2ccc(Cl)cc2)C12CCCCC2 [Example 20, 5-(4-chlorophenyl)-1-propyl-1-azaspiro[5.5]undec-4-enehydrochloride] | 3 | ~26 | – |
| C=CCN1CCC=C(c2ccc(Cl)cc2)C12CCCCC2.O=C(O)/C=C\C(=O)O [Example 21, 1-allyl-5-(4-chlorophenyl)-1-azaspiro[5.5]undec-4-ene maleate] | 9.1 | – | Test 1 ED50 (dose causing 50% reversal of the reserpine-induced fall in body temperature) [1, 2]: Inactive @ 30 |
| COCCN1CCC=C(c2ccc(Cl)cc2)C12CCCCC2 [Example 22, 5-(4-chlorophenyl)-1-(2-methoxyethyl)-1-azaspiro[5.5]undec-4-ene 1.25 hydrochloride] | 10.1 | ~30 | – |
| C1=C(c2ccccc2)C2(CCCCC2)NCC1.Cl [Example 24, 5-phenyl-1-azaspiro[5.5]undec-4-ene hydrochloride] | – | ~11.5 | Test 2 ED50 (dose causing 50% prevention of the reserpine-induced ptosis) (reserpine-induced ptosis; [3]): Inactive @ 30 |
| C1=C(c2ccc(-c3ccccc3)cc2)C2(CCCCC2)NCC1.Cl [Example 25, 5-(4-biphenylyl)-1-azaspiro[5.5]undec-4-ene hydrochloride] | 9.9 | – | Test 1 ED50 (dose causing 50% reversal of the reserpine-induced fall in body temperature) [1, 2]: Inactive @ 30 |
| Cl.Clc1ccc(C2=CCNC23CCCCC3)cc1 [Example 26, 4-(4-chlorophenyl)-1-azaspiro[4.5]dec-3-ene hydrochloride] | 5.6 | – | Test 1 ED50 (dose causing 50% reversal of the reserpine-induced fall in body temperature) [1, 2]: Inactive @ 30 |
